Source: ChEMBL document CHEMBL3991601, “The target landscape of clinical kinase drugs” (Science, 2017)
Active and inactive are the calls of the source.

How the values were obtained:
Myosin-14 = Myosin-14 (Homo sapiens, UniProt Q7Z406)
[1] = biological target: T1, Ferrochelatase, mitochondrial (Homo sapiens, UniProt P22830)
T1 sequence (P22830 whole entry): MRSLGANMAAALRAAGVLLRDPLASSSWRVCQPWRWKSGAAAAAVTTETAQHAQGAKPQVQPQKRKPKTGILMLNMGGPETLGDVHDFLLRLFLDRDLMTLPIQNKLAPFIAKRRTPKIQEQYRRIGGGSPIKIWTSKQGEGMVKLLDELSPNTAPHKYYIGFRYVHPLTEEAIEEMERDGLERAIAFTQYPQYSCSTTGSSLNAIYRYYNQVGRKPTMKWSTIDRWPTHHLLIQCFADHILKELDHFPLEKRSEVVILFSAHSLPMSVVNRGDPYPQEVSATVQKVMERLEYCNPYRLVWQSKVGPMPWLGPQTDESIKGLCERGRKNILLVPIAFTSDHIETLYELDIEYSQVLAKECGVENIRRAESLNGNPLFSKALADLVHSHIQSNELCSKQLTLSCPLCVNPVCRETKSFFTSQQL

Adenosine kinase = Adenosine kinase (Homo sapiens, UniProt P55263)
Aurora kinase B = Aurora kinase B (Homo sapiens, UniProt Q96GD4)
[2] = biological target: T2, Interleukin-1 receptor-associated kinase 4 (Homo sapiens, UniProt Q9NWZ3)
T2 sequence (Q9NWZ3 whole entry): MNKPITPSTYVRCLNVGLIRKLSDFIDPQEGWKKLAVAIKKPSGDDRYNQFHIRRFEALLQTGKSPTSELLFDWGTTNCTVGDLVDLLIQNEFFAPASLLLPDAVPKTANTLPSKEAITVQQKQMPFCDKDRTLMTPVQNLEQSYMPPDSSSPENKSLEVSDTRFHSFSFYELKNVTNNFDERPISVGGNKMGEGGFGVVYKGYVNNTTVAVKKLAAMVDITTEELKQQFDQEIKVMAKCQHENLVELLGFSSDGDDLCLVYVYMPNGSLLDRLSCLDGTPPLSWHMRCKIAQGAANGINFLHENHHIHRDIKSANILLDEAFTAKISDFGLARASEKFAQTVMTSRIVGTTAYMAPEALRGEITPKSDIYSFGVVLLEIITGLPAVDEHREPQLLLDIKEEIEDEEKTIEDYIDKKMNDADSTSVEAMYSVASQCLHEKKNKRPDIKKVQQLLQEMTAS

[3] = biological target: T3, Serine/threonine-protein kinase LATS1 (Homo sapiens, UniProt O95835)
T3 sequence (O95835 whole entry): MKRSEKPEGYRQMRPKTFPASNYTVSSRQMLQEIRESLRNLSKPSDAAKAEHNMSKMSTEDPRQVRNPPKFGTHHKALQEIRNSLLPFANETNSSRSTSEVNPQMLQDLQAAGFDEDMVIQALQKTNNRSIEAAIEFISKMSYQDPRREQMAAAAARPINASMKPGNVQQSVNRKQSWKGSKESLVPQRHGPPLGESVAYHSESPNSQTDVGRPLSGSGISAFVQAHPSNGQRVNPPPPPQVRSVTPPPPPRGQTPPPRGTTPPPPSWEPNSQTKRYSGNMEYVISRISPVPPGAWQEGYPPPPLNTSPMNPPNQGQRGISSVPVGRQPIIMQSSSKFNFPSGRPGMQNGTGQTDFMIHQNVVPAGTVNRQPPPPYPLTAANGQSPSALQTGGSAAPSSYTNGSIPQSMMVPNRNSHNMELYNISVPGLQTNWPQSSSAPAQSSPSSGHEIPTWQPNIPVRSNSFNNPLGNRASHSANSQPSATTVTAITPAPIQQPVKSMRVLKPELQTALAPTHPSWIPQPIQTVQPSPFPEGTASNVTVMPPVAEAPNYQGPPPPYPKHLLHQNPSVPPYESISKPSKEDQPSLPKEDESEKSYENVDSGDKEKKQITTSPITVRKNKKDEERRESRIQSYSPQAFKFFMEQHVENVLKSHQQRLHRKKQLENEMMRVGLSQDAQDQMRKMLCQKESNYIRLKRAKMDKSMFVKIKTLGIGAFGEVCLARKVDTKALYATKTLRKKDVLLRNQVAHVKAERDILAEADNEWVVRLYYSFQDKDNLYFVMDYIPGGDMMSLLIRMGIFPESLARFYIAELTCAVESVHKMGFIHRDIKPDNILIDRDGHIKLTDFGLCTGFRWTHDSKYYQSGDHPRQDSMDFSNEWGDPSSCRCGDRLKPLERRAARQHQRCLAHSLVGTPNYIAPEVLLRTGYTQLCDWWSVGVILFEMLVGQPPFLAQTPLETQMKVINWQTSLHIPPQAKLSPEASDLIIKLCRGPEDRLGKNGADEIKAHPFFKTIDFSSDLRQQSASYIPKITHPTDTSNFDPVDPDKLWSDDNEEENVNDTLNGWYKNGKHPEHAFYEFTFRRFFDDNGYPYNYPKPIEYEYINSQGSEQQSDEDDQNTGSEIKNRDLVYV

[4] = biological target: 26S proteasome regulatory subunit 6B (Homo sapiens, UniProt P43686)
[5] = biological target: T4, Serine/threonine-protein kinase Nek2 (Homo sapiens, UniProt P51955)
T4 sequence (P51955 whole entry): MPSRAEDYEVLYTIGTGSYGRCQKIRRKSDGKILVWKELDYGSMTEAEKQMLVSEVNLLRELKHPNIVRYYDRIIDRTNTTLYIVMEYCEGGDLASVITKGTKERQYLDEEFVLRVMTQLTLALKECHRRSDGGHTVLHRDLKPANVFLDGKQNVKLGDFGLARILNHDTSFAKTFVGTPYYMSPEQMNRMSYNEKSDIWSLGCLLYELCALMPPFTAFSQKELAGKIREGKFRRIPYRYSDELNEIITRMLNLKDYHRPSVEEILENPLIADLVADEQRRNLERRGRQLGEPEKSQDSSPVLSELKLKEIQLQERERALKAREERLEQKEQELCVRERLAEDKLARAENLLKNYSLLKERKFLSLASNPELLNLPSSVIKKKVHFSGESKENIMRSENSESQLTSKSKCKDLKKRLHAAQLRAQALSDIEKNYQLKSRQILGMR
Note: in the data inactive means no Kd found up to 30 µM.

Chain of Adenosine kinase (P55263 whole entry): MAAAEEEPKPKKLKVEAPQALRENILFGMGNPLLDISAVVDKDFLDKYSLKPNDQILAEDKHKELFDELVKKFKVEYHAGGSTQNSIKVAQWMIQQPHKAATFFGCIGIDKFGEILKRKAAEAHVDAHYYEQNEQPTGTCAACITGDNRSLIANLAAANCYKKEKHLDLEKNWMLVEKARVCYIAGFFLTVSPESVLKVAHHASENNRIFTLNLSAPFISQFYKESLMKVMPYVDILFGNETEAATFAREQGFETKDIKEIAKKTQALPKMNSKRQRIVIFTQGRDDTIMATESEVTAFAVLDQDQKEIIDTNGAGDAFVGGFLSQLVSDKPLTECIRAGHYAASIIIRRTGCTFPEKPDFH
Chain of 26S proteasome regulatory subunit 6B (P43686 whole entry): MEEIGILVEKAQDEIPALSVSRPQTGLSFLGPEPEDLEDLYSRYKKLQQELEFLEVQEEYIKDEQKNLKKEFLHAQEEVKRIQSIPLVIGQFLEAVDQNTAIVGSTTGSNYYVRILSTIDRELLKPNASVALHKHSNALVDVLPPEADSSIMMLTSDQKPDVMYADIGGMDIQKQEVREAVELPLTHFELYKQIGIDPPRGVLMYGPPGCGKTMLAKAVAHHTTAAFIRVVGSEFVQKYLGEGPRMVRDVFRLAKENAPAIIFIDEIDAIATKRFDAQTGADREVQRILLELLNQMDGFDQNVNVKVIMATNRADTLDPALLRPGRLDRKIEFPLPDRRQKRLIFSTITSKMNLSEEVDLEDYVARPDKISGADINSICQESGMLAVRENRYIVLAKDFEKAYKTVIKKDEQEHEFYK
Chain of Aurora kinase B (Q96GD4 whole entry): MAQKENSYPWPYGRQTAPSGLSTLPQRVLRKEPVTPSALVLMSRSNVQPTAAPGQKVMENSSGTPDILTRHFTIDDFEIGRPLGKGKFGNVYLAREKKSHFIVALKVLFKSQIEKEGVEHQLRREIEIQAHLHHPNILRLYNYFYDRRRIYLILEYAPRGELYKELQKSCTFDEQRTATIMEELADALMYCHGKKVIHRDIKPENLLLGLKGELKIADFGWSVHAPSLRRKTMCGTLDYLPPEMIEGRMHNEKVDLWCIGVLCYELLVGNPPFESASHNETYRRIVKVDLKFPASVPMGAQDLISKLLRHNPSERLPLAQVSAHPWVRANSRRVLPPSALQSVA
Chain of Myosin-14 (Q7Z406 whole entry): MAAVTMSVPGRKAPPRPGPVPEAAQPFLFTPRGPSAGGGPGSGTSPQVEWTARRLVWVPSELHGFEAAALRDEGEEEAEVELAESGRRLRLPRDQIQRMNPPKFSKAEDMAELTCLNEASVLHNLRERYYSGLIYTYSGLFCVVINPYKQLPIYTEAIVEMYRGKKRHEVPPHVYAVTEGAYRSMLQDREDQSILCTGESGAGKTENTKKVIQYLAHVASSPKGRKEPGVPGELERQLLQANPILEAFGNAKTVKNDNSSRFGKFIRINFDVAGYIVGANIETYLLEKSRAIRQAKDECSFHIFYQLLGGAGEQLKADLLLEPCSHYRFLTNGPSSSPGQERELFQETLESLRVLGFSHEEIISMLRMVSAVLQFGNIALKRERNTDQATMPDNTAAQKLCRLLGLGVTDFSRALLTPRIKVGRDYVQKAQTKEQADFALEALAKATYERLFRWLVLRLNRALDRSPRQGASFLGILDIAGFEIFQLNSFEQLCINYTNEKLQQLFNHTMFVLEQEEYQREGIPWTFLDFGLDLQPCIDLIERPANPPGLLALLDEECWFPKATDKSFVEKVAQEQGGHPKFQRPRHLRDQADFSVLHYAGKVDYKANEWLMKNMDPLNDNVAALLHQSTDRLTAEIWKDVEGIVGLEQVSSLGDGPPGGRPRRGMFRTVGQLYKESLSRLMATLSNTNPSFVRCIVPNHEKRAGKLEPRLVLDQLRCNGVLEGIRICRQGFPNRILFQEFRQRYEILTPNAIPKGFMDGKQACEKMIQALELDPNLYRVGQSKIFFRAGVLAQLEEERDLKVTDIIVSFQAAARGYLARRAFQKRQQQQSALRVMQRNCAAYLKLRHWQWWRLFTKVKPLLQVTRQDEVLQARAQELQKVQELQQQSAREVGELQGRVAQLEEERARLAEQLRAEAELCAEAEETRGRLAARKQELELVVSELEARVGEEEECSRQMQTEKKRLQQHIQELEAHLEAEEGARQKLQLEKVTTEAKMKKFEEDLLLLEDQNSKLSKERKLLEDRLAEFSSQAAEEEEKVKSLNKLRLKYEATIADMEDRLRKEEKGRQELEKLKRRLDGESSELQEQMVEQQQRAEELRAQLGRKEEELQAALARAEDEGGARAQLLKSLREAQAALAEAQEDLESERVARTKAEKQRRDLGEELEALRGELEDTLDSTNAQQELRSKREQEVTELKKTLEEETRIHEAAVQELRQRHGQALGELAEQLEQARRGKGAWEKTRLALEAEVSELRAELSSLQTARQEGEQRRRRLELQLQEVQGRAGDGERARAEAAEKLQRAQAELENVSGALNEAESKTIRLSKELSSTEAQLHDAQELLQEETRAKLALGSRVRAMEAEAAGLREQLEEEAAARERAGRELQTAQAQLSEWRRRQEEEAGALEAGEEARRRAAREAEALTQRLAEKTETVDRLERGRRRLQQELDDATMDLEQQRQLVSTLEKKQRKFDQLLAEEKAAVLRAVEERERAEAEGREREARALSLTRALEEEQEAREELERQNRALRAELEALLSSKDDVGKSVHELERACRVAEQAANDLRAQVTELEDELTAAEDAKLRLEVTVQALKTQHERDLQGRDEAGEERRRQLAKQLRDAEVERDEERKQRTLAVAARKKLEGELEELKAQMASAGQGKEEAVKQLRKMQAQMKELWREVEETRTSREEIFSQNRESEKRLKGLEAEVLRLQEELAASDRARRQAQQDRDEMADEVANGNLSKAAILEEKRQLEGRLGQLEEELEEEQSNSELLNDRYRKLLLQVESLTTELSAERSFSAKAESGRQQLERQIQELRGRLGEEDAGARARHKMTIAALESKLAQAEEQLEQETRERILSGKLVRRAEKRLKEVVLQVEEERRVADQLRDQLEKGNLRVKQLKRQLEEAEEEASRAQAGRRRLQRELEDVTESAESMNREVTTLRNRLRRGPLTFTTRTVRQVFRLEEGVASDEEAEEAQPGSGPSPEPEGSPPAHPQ

SMILES | Kd (Myosin-14) | Kd [1] | Kd (Adenosine kinase) | Kd (Aurora kinase B) | Kd [2] | Kd [3] | Kd [4] | Kd [5]
C=CC(=O)Nc1cc(Nc2nccc(-c3cn(C)c4ccccc34)n2)c(OC)cc1N(C)CCN(C)C [OSIMERTINIB] | > 30 µM (inactive) | > 30 µM (inactive) | > 30 µM (inactive) | > 30 µM (inactive) | > 30 µM (inactive) | > 30 µM (inactive) | > 30 µM (inactive) | > 30 µM (inactive)
COc1ccc2c(OCc3nnc4ccc(-c5ccccc5)nn34)ccnc2c1 [AMG-208] | > 30 µM (inactive) | > 30 µM (inactive) | > 30 µM (inactive) | > 30 µM (inactive) | > 30 µM (inactive) | > 30 µM (inactive) | > 30 µM (inactive) | > 30 µM (inactive)
CC[C@@](C)(Nc1ccnc(-c2c[nH]c3ncccc23)n1)C(=O)NCC(F)(F)F [DECERNOTINIB] | > 30 µM (inactive) | > 30 µM (inactive) | > 30 µM (inactive) | > 30 µM (inactive) | > 30 µM (inactive) | > 30 µM (inactive) | > 30 µM (inactive) | > 30 µM (inactive)
Cc1c(Cn2c(C)nc3c(C(=O)O)cc(N4CCOCC4)cc32)cccc1C(F)(F)F [GSK-2636771] | > 30 µM (inactive) | > 30 µM (inactive) | > 30 µM (inactive) | > 30 µM (inactive) | > 30 µM (inactive) | > 30 µM (inactive) | > 30 µM (inactive) | > 30 µM (inactive)
Cn1cc(-c2[nH]c3cc(NC(=O)[C@H](N)C4CCCCC4)cc4c3c2C=NNC4=O)cn1 | > 30 µM (inactive) | > 30 µM (inactive) | > 30 µM (inactive) | 0.12 µM (active) | 2.61 µM (active) | 0.363 µM (active) | > 30 µM (inactive) | > 30 µM (inactive)
NC(=O)c1ccc(N(C(N)=O)c2c(F)cccc2F)nc1-c1ccc(F)cc1F [VX-702] | > 30 µM (inactive) | > 30 µM (inactive) | > 30 µM (inactive) | > 30 µM (inactive) | > 30 µM (inactive) | > 30 µM (inactive) | > 30 µM (inactive) | > 30 µM (inactive)
C=CC(=O)Nc1cccc(Nc2nc(Nc3ccc(N4CCN(C(C)=O)CC4)cc3OC)ncc2C(F)(F)F)c1 [ROCILETINIB] | > 30 µM (inactive) | > 30 µM (inactive) | > 30 µM (inactive) | > 30 µM (inactive) | > 30 µM (inactive) | > 30 µM (inactive) | > 30 µM (inactive) | > 30 µM (inactive)
O=C(NC[C@H](O)CO)c1ccncc1Nc1ccc(I)cc1F [PIMASERTIB] | > 30 µM (inactive) | > 30 µM (inactive) | > 30 µM (inactive) | > 30 µM (inactive) | > 30 µM (inactive) | > 30 µM (inactive) | > 30 µM (inactive) | > 30 µM (inactive)
Cc1cc(-c2cc(OC(=O)c3ccccc3)ccc2Cl)cc2nnc(Nc3ccc(OCCN4CCCC4)cc3)nc12 [TG100-801] | > 30 µM (inactive) | > 30 µM (inactive) | > 30 µM (inactive) | > 30 µM (inactive) | > 30 µM (inactive) | > 30 µM (inactive) | > 30 µM (inactive) | > 30 µM (inactive)
O=C(Nc1ccc(OC(F)(F)F)cc1)c1sccc1NCc1ccnc2ccccc12 [OSI-930] | > 30 µM (inactive) | > 30 µM (inactive) | > 30 µM (inactive) | > 30 µM (inactive) | > 30 µM (inactive) | > 30 µM (inactive) | > 30 µM (inactive) | > 30 µM (inactive)
NC[C@@](O)(c1ccc(Cl)cc1)c1ccc(-c2cn[nH]c2)cc1 [AT-13148] | > 30 µM (inactive) | > 30 µM (inactive) | > 30 µM (inactive) | > 30 µM (inactive) | > 30 µM (inactive) | 0.027 µM (active) | > 30 µM (inactive) | > 30 µM (inactive)

Next, values leading:

Kd (Myosin-14) | Kd [1] | Kd (Adenosine kinase) | Kd (Aurora kinase B) | Kd [2] | Kd [3] | Kd [4] | Kd [5] | SMILES
> 30 µM (inactive) | > 30 µM (inactive) | > 30 µM (inactive) | > 30 µM (inactive) | > 30 µM (inactive) | > 30 µM (inactive) | > 30 µM (inactive) | > 30 µM (inactive) | CNC(=O)c1cccc(-c2ccc3c(N4CCOC[C@@H]4C)nc(N4CCOC[C@@H]4C)nc3n2)c1 [VISTUSERTIB]
> 30 µM (inactive) | 32.4 µM (active) | > 30 µM (inactive) | > 30 µM (inactive) | > 30 µM (inactive) | > 30 µM (inactive) | > 30 µM (inactive) | > 30 µM (inactive) | c1cc(OCCN2CCCCC2)cc(-c2n[nH]c3ccc(-c4nc[nH]n4)cc23)c1 [CC-401]
> 30 µM (inactive) | > 30 µM (inactive) | > 30 µM (inactive) | > 30 µM (inactive) | > 30 µM (inactive) | > 30 µM (inactive) | > 30 µM (inactive) | > 30 µM (inactive) | O=c1[nH]c([C@@H]2CCCN2)nc2c1oc1ccc(Cl)cc12
> 30 µM (inactive) | > 30 µM (inactive) | > 30 µM (inactive) | > 30 µM (inactive) | > 30 µM (inactive) | > 30 µM (inactive) | > 30 µM (inactive) | > 30 µM (inactive) | CCN1CCN(Cc2ccc(Nc3ncc(F)c(-c4cc(F)c5nc(C)n(C(C)C)c5c4)n3)nc2)CC1 [ABEMACICLIB]
> 30 µM (inactive) | > 30 µM (inactive) | > 30 µM (inactive) | > 30 µM (inactive) | > 30 µM (inactive) | > 30 µM (inactive) | > 30 µM (inactive) | > 30 µM (inactive) | COc1cccc(Nc2ncnn3ccc(CN4CC[C@@H](N)[C@H](O)C4)c23)c1 [BMS-690514]
> 30 µM (inactive) | 76.4 µM | > 30 µM (inactive) | > 30 µM (inactive) | > 30 µM (inactive) | > 30 µM (inactive) | > 30 µM (inactive) | > 30 µM (inactive) | C[C@@H]1COC(Nc2ccc3ncnc(Nc4ccc(OCc5nccs5)c(Cl)c4)c3c2)=N1 [VARLITINIB]
